Measured values from the SangsterLogP compilation.

Row | SMILES | logP
1 | COc1ccc(Br)cc1Cl | 3.77
2 | COc1cc(Cl)ccc1Cl | 3.27
3 | COc1cc(Cl)c(Cl)c(Cl)c1Br | 4.97
4 | COc1c(Br)cc(Br)c(Cl)c1Br | 5.29
5 | COc1c(Cl)c(Cl)cc(Br)c1Cl | 4.66
6 | COc1ccccc1Cl | 2.72
7 | COc1ccc(Cl)cc1Cl | 3.46
8 | COc1c(Br)c(Cl)c(Cl)c(Cl)c1Br | 5.55
9 | COc1c(Br)cccc1Br | 3.42
10 | COc1cccc(Br)c1 | 3.23
11 | COc1cc(Cl)cc(Cl)c1Cl | 4.05
12 | COc1cc(Br)c(Cl)cc1Cl | 4.47
13 | COc1c(Cl)c(Cl)c(Br)c(Cl)c1Cl | 5.26
14 | COc1ccc(Cl)c(Cl)c1 | 3.55
15 | COc1cc(Cl)c(Br)c(Cl)c1 | 4.39
16 | COc1cc(Cl)c(Cl)cc1Cl | 3.95
17 | COc1ccc(Br)cc1Br | 3.75
18 | COc1c(Cl)c(Cl)c(Cl)c(Cl)c1Cl | 5.16
19 | COc1c(Br)cc(Br)c(Cl)c1Cl | 4.97

Row | SMILES | logP
20 | COc1ccc(Cl)cc1Br | 3.59
21 | COc1ccc(Br)c(Cl)c1Cl | 4.47
22 | COc1c(Br)ccc(Cl)c1Cl | 4.47
23 | COc1cccc(Cl)c1Cl | 3.3
24 | COc1c(Cl)cccc1Br | 3.44
25 | COc1cc(Cl)c(Br)c(Cl)c1Br | 5.29
26 | COc1c(Cl)cc(Cl)cc1Br | 4
27 | COc1cc(Cl)cc(Cl)c1Br | 4.39
28 | COc1c(Cl)cc(Br)c(Cl)c1Cl | 4.66
29 | COc1c(Br)c(Br)c(Br)c(Br)c1Br | 5.43
30 | COc1ccccc1Br | 2.87
31 | COc1c(Cl)ccc(Cl)c1Cl | 3.76
32 | COc1c(Br)cc(Cl)cc1Br | 4.33
33 | COc1c(Br)cc(Cl)c(Cl)c1Cl | 4.64
34 | COc1c(Cl)cccc1Cl | 3.19
35 | COc1c(Cl)cc(Br)cc1Cl | 4.02
36 | COc1c(Cl)c(Cl)cc(Br)c1Br | 5.29
37 | COc1ccc(Br)cc1 | 3.15
38 | COc1cc(Cl)c(Cl)c(Cl)c1Cl | 4.57
